# Measured values taken from EP4813383A1, “USE OF TAFAMIDIS AND PHARMACEUTICALLY ACCEPTABLE SALT THEREOF IN PREVENTION, ALLEVIATION, OR TREATMENT OF DISEASES ASSOCIATED WITH HIF-2a” (Huaya Jiyuan (Shenzhen) Pharmaceutical Co., Ltd., priority 2024, dated 2025).
# Columns and labels:
# [1] = system: 5/6 nephrectomy (5/6Nx) rat model; experiment: 5/6 nephrectomy (5/6Nx) rat model; type: in vivo, Male Sprague Dawley (SD) rats
# Excerpt: Male Sprague Dawley (SD) rats are used to establish a renal injury-induced anemia model through 5/6 nephrectomy surgery to investigate the erythropoiesis-promoting effect of tafamidis. After a one-week acclimation period, the rats are anesthetized with isoflurane, and the left kidney is exposed through a midline abdominal incision. Ligatures are placed at the upper one-third and lower one-third positions of the kidney, and the corresponding renal tissues outside the ligatures are excised. After a one-week recovery period, the right kidney is excised, with eight rats assigned to the nephrectomy group and the remaining eight rats serving as a non-operated normal control group. At week 4, renal dysfunction in the operated rats is confirmed by assessing serum urea and creatinine levels. Tafamidis and roxadustat are dissolved in a vehicle containing 10% dimethyl sulfoxide (DMSO), 30% polyethylene glycol 400 (PEG 400), 5% Tween-80, 1% hydrochloric acid (113.3 mM), 9% 0.1 N sodium hydroxide, and 45% normal saline. […] Starting from week 6, the tafamidis treatment group and the roxadustat group are orally administered the corresponding compound at 10 mg/kg daily (10 mg orally per day per 1 kg body weight of rat) for four weeks, while the sham-operated group and the 5/6 nephrectomy model (5/6Nx) rats are administered the vehicle based on the same dosing regimen. Hematological analysis is performed weekly, and urine samples are collected on the day following the final treatment, so as to determine urinary total protein (UTP) and urinary creatinine (UCREA). Hematological analysis is performed using the Sysmex Europe XN-2000 automated hematology analyzer, and urinalysis is performed using the Cobas C501 automated analyzer, both using commercially available kits in accordance with the manufacturers' instructions. After sample collection, the rats are euthanized. Statistical significance is determined by one-way analysis of variance (ANOVA), and then a Dunnett's test is performed for comparison with the 5/6Nx group (*P < 0.05, **P < 0.01, ***P < 0.001).
# [2] = system: Unilateral ureteral obstruction (UUO)-induced mouse model; experiment: Unilateral ureteral obstruction (UUO)-induced mouse model of renal injury and anemia; type: in vivo, Male Balb/c mice; settings: for Pathological score for renal tubular injury: H&E staining, Paller score, UUO control group 4.56 ± 0.19; for Reduction in fibrosis: Masson's trichrome staining, interstitial fibrosis, UUO control group 26.0 ± 1.9%; for Urea level: serum after final treatment, UUO control group 6.26 ± 0.14
# Excerpt: Animal model establishment: Male Balb/c mice are anesthetized with isoflurane and then secured to an operating table with medical tape. After preparation of an abdominal midline incision site, the surgical part is disinfected with 75% ethanol-iodine tincture-ethanol. Subsequently, an incision is made along the linea alba of the mouse, and the incision is held open with a laparotomy retractor. The left ureter is isolated using a sterile cotton swab and curved forceps and ligated near the bladder dome using 3-0 suture. One drop of normal saline is added into the abdominal cavity, and then the abdomen is sutured. Following recovery on a heating pad, the mouse is returned to the cage, maintained under normal feeding and drinking conditions, and observed, thereby completing model establishment. For the sham-operated group, all procedures are the same as those of the model group except that no ligation is performed. For the treatment groups in the UUO model, male Balb/c mice, after a one-week acclimation period, are orally administered tafamidis (tafamidis treatment group) or roxadustat (roxadustat treatment group) by gavage for three consecutive days. The dose in the first tafamidis treatment group is 5 mg/kg/day, the dose in the second tafamidis treatment group is 10 mg/kg/day, and the dose in the roxadustat treatment group is 10 mg/kg/day. The drug administration is continued for seven days after unilateral ureteral obstruction surgery. A solvent is administered to the mice in the sham-operated group and the UUO control group based on the same dosing regimen. Serum analysis is performed after the final treatment. Serum analysis is performed using a Mindray BS-2000M automated […] analyzer with commercially available kits based on the manufacturer's instructions. After sample collection, the […] are euthanized. Statistical significance is determined by one-way analysis of variance (ANOVA), and then a Dunnett's test is performed for comparison with the UUO control group (*P < 0.05, **P < 0.01, ***P < 0.001).
# Isolated left kidney samples from mice are fixed in 4% paraformaldehyde, dehydrated, embedded in paraffin, and sectioned. The tissue sections are 4 µm thick, and are subsequently subjected to histochemical staining such as H&E staining and Masson's trichrome staining. After staining, the sections are scanned using advanced three-dimensional histological imaging technology, and high-resolution images are captured using a Pannoramic DESK/MIDI/250/1000 system. H&E staining is analyzed to evaluate renal tubular injury. 10 fields are randomly selected from each sample, and examined at a 40× magnification. The degree of renal tubular injury is assessed using a semi-quantitative scoring system (Paller score): 0 (no injury), 1 (<25% injury), 2 (25% to 50% injury), 3 (50% to 75% injury), and 4 (>75% injury). In addition, the entire tissue section is assessed at a 0.7× magnification to determine the extent of collagen fiber deposition shown by Masson's trichrome staining. Semi-quantitative analysis of the collagen fiber area is performed using Image-Pro Plus 6.0 software. Statistical significance is determined by one-way analysis of variance (ANOVA), and then a Dunnett's test is performed for comparison with the UUO control group (*P < 0.05, **P < 0.01, ***P < 0.001).
# [3] = 10 mg/kg/day oral gavage, listed as Roxadustat
# [4] = 10 mg/kg daily oral for four weeks, urine on the day after final treatment
Compound,"UTP excretion levels, increase compared with the 5/6Nx group ([1]; 10 mg/kg daily oral for four weeks, urine on the day after final treatment, p < 0.01) [fold]","RBC levels (erythrocytosis) ([1]; 10 mg/kg daily oral, day 14, against the physiological range of the healthy control group)",Pathological score for renal tubular injury ([2]; 10 mg/kg/day oral gavage),"Pathological score for renal tubular injury [2, 3]",Reduction in fibrosis ([2]; 10 mg/kg/day oral gavage) [%],"Reduction in fibrosis [2, 3]",Urea level ([2]; 10 mg/kg/day oral gavage),"Urea level [2, 3]","UTP excretion levels [1, 4]","effect on UCREA [1, 4]","red blood cell (RBC) count ([1]; 10 mg/kg daily oral, week 4, 5/6Nx group 7.7 ± 0.3 × 10^12, p < 0.05)",Gross observation: pallor of the obstructed kidney ([2]; 5 mg/kg/day oral gavage),Pathological score for renal tubular injury ([2]; 5 mg/kg/day oral gavage),Urea level ([2]; 5 mg/kg/day oral gavage)
Cc1nc(C(=O)NCC(=O)O)c(O)c2ccc(Oc3ccccc3)cc12 [roxadustat],3.3,notable erythrocytosis,4.78 ± 0.09,"4.78 ± 0.09, P = 0.98",21.8 ± 1.6,"21.8 ± 1.6%, P = 0.37",5.36 ± 0.10 mmol/L,"5.36 ± 0.10, P < 0.001 mmol/L",–,–,–,–,–,–
"O=C(O)c1ccc2nc(-c3cc(Cl)cc(Cl)c3)oc2c1 [tafamidis, 2-(3,5-dichlorophenyl)-1,3-benzoxazole-6-carboxylic acid]",–,–,"2.93 ± 0.35, P < 0.05",–,–,–,"5.28 ± 0.29, P < 0.05 mmol/L",–,remain at baseline levels,essentially no effect,8.2 ± 0.3 × 10^12 cells/L,significantly alleviates,"2.85 ± 0.83, P < 0.05","5.67 ± 0.23, P = 0.10 mmol/L"
